Experimental data reported in ChEMBL document CHEMBL5380810, “Scaffold Hybrid of the Natural Product Tanshinone I with Piperidine for the Discovery of a Potent NLRP3 Inflammasome Inhibitor” (J Med Chem, 2023).
In brackets after ≈: the same amount, converted by molar mass. Activity calls are given as the source filed them. The calls are words filed in the database; no cut-off is given here.

Legend:
[1] = Metabolic stability in human liver microsomes assessed as half life at 20 uM measured upto 120 mins in presence of NADPH by LC-MS/MS analysis; type: ADME, Microsome
Peritoneal macrophage [2] = test: Antiinflammatory activity against LPS-stimulated mouse peritoneal macrophage assessed as IL-1beta level at 2 uM treated for 3 hrs followed by ATP addition measured after 30 mins by ELISA method relative to control; type: functional; conditions: time 3.5 hrs
[3] = target: NACHT, LRR and PYD domains-containing protein 3 (Mus musculus, UniProt Q8R4B8); test: Binding affinity to CMS sensor chip immobilized His-SUMO-tagged mouse NLRP3 expressed in Escherichia coli assessed as dissociation constant by SPR analysis
NACHT, LRR and PYD domains-containing protein 3, sequence (Q8R4B8 whole entry, the tested form may be a part): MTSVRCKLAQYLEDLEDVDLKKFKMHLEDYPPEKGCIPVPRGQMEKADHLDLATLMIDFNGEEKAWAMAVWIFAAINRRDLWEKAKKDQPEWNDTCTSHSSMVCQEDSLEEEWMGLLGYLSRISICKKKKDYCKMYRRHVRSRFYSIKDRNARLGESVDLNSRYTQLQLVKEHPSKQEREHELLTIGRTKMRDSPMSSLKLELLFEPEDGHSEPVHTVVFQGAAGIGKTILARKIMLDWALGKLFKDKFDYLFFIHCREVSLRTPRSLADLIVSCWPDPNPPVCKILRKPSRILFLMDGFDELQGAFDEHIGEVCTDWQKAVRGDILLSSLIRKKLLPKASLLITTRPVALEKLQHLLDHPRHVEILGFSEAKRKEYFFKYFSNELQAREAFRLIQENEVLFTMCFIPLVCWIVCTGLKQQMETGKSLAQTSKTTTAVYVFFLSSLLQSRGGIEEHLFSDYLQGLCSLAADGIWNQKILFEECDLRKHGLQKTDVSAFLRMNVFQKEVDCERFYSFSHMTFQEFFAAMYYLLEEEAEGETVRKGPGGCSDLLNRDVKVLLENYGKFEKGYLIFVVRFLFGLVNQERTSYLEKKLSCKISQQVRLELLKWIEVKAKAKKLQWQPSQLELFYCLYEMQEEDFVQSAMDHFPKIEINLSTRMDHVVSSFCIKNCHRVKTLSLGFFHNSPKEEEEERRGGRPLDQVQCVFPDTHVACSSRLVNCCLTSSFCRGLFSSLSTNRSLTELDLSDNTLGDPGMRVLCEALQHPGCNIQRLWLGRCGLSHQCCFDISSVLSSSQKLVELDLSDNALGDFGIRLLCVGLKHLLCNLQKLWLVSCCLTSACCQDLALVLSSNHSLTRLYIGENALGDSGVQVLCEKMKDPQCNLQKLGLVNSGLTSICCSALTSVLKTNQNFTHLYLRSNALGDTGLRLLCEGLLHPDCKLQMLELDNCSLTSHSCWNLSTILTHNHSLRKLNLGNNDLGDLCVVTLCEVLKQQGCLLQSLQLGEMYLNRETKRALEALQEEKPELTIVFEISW

[4] = Metabolic stability in human liver microsomes assessed as intrinsic clearance at 20 uM measured upto 120 mins in presence of NADPH by LC-MS/MS analysis; type: ADME, Microsome; conditions: read-out: CLH
Peritoneal macrophage [5] = test: Antiinflammatory activity against LPS-stimulated mouse peritoneal macrophage assessed as inhibition of IL-1beta secretion treated for 3 hrs followed by ATP addition measured after 30 mins by ELISA method; type: functional, cell-based
Peritoneal macrophage [6] = test: Antiinflammatory activity against LPS-stimulated mouse peritoneal macrophage assessed as TNF-alpha level at 2 uM treated for 3 hrs followed by ATP addition measured after 30 mins by ELISA method relative to control; type: functional; conditions: time 3.5 hrs
Peritoneal macrophage [7] = test: Cytotoxicity against mouse peritoneal macrophages at 4 uM incubated for 3.5 hrs by MTT assay; type: toxicity, cell-based
[8] = Aqueous solubility of compound incubated for 24 hrs by HPLC analysis; type: physicochemical; conditions: buffer
[9] = Metabolic stability in mouse liver microsomes assessed as intrinsic clearance at 20 uM measured upto 120 mins in presence of NADPH by LC-MS/MS analysis; type: ADME, Microsome; conditions: read-out: CLH
[10] = Metabolic stability in mouse liver microsomes assessed as half life at 20 uM measured upto 120 mins in presence of NADPH by LC-MS/MS analysis; type: ADME, Microsome
Mus musculus [11] = test: Antiinflammatory activity in septic C57BL/6 mouse model assessed as decrease in LPS-induced IL-1beta release at 50 mg/kg, ip pretreated for 42 hrs followed by LPS injection measured after 6 hrs by ELISA method; type: functional, organism-based; conditions: time 48.0 hrs
[12] = target: NACHT, LRR and PYD domains-containing protein 3 (Mus musculus) (UniProt Q8R4B8); test: Inhibition of NLRP3 inflammasome activation in […] LPS-primed mouse peritoneal macrophage cells assessed as inhibition of IL-1beta secretion at 2 uM treated for 3 hrs followed by MSU addition measured after 30 mins by ELISA method; type: cell-based; conditions: time 3.5 hrs
NACHT, LRR and PYD domains-containing protein 3 (Mus musculus), sequence (Q8R4B8 whole entry, the tested form may be a part): as above

[13] = target: NACHT, LRR and PYD domains-containing protein 3 (Mus musculus) (UniProt Q8R4B8); test: Inhibition of NLRP3 inflammasome activation in ATP-induced LPS-primed mouse BMDM cells assessed as inhibition of IL-1beta secretion at 1 uM treated for 3 hrs followed by ATP addition measured after 30 mins by ELISA method; type: cell-based; conditions: time 3.5 hrs
Peritoneal macrophage [14] = test: Effect on ASC expression in ATP-induced LPS-primed mouse peritoneal macrophage cells at 2 uM treated for 3 hrs followed by ATP addition measured after 30 mins by Western blot analysis; type: functional, cell-based; conditions: time 3.5 hrs
Peritoneal macrophage [15] = test: Effect on pro-IL-1beta expression in ATP-induced LPS-primed mouse peritoneal macrophage cells at 2 uM treated for 3 hrs followed by ATP addition measured after 30 mins by Western blot analysis; type: functional, cell-based; conditions: time 3.5 hrs
Peritoneal macrophage [16] = test: Effect on pro-caspase-1 expression in LPS-stimulated mouse peritoneal macrophage at 2 uM treated for 3 hrs followed by ATP addition measured after 30 mins by Western blot analysis; type: functional, cell-based; conditions: time 3.5 hrs
[17] = target: NACHT, LRR and PYD domains-containing protein 3 (Mus musculus) (UniProt Q8R4B8); test: Inhibition of NLRP3 inflammasome activation in LPS-stimulated mouse peritoneal macrophage assessed as inhibition of caspase-1 secretion at 2 uM treated for 3 hrs followed by ATP addition measured after 30 mins by Western blot analysis relative to control; type: cell-based; conditions: time 3.5 hrs
Peritoneal macrophage [18] = test: Effect on pro-IL-1beta expression in LPS-stimulated mouse peritoneal macrophage at 2 uM treated for 3 hrs followed by ATP addition measured after 30 mins by Western blot analysis; type: functional, cell-based; conditions: time 3.5 hrs
Peritoneal macrophage [19] = test: Effect on NLRP3 expression in ATP-induced LPS-primed mouse peritoneal macrophage cells at 2 uM treated for 3 hrs followed by ATP addition measured after 30 mins by Western blot analysis; type: functional, cell-based; conditions: time 3.5 hrs
Mus musculus [20] = test: Antiinflammatory activity in septic C57BL/6 mouse model assessed as reduction in LPS-induced alveolar wall thickening at 50 mg/kg, ip pretreated for 42 hrs followed by LPS injection measured after 6 hrs by H and E staining based analysis; type: functional, organism-based; conditions: time 48.0 hrs
[21] = target: NACHT, LRR and PYD domains-containing protein 3 (Mus musculus) (UniProt Q8R4B8); test: Inhibition of NLRP3 inflammasome activation in LPS-stimulated mouse peritoneal macrophage assessed as inhibition of IL-1beta secretion at 2 uM treated for 3 hrs followed by ATP addition measured after 30 mins by Western blot analysis relative to control; type: cell-based; conditions: time 3.5 hrs
[22] = target: NACHT, LRR and PYD domains-containing protein 3 (Homo sapiens) (UniProt Q96P20); test: Inhibition of NLRP3 (unknown origin) degradation at 10 uM incubated for 5 hrs followed by heat treatment for 3 mins by CETSA assay; conditions: time 5.03 hrs
NACHT, LRR and PYD domains-containing protein 3 (Homo sapiens), sequence (Q96P20 whole entry, the tested form may be a part): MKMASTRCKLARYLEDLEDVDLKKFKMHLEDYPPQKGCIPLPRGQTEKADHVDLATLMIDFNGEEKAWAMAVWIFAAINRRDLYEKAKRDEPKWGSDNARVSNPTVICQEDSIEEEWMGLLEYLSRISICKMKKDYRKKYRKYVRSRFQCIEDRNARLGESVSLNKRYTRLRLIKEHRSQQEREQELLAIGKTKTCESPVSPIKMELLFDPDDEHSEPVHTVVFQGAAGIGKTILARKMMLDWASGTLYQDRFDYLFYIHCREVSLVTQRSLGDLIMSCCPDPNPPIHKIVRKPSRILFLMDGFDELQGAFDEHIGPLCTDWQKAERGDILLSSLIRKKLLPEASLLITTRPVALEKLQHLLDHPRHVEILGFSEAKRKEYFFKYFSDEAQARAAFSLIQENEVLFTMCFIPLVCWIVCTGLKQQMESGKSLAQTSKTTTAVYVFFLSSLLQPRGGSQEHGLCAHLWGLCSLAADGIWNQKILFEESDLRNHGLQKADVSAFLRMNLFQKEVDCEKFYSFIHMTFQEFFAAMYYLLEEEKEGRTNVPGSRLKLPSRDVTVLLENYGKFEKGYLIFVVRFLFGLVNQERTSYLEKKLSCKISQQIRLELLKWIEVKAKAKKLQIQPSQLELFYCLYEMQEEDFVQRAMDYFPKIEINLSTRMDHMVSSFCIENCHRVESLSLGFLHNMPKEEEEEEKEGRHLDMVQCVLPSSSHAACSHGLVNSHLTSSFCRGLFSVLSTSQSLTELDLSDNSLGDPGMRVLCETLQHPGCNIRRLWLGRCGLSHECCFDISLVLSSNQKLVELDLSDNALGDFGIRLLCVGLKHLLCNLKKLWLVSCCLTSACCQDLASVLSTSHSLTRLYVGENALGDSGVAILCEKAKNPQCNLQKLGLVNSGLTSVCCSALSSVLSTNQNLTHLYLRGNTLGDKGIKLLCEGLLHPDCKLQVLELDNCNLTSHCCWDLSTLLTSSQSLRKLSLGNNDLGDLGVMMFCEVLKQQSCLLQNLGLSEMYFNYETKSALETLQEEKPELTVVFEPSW

Mus musculus [23] = test: Antiinflammatory activity in septic C57BL/6 mouse model assessed as reduction in LPS-induced inflammatory infiltration at 50 mg/kg, ip pretreated for 42 hrs followed by LPS injection measured after 6 hrs by H and E staining based analysis; type: functional, organism-based; conditions: time 48.0 hrs
Peritoneal macrophage [24] = test: Antiinflammatory activity against LPS-stimulated mouse peritoneal macrophage assessed as inhibition of IL-1beta secretion at 1 uM treated for 3 hrs followed by ATP addition measured after 30 mins by ELISA method; type: functional, cell-based; conditions: time 3.5 hrs
Mus musculus [25] = test: Antiinflammatory activity in septic C57BL/6 mouse model assessed as reduction in LPS-induced granulocyte count at 50 mg/kg, ip pretreated for 42 hrs followed by LPS injection measured after 6 hrs by H and E staining based analysis; type: functional, organism-based; conditions: time 48.0 hrs
Peritoneal macrophage [26] = test: Effect on pro-caspase-1 expression in ATP-induced LPS-primed mouse peritoneal macrophage cells at 2 uM treated for 3 hrs followed by ATP addition measured after 30 mins by Western blot analysis; type: functional, cell-based; conditions: time 3.5 hrs
Mus musculus [27] = test: Antiinflammatory activity in septic C57BL/6 mouse model assessed as decrease in LPS-induced IL-6 release at 50 mg/kg, ip pretreated for 42 hrs followed by LPS injection measured after 6 hrs by ELISA method; type: functional, organism-based; conditions: time 48.0 hrs
[28] = target: NACHT, LRR and PYD domains-containing protein 3 (Mus musculus) (UniProt Q8R4B8); test: Inhibition of NLRP3 inflammasome activation in […] LPS-primed mouse peritoneal macrophage cells assessed as inhibition of IL-1beta secretion at 2 uM treated for 3 hrs followed by nigericin addition measured after 30 mins by ELISA method; type: cell-based; conditions: time 3.5 hrs

Cc1cccc2c3c(ccc12)-c1oc2c(c1C(=O)C3=O)CCN(CCCN1CCOCC1)C2 [listing 1 of 2 here]
half-life at 20 µM [1]: 14.4 h | Activity (Peritoneal macrophage [2]): 97% | Kd [3]: 5.87 µM | microsomal CLint at 20 µM [4]: 1.6 µL/min/mg | IC50 (Peritoneal macrophage [5]): 0.131 µM | Activity (Peritoneal macrophage [6]): 41% | Activity (Peritoneal macrophage [7]): Non-Toxic | solubility [8]: 0.03 µg/mL (≈ 0.0675 µM) | microsomal CLint at 20 µM [9]: 7.6 µL/min/mg | half-life at 20 µM [10]: 3.04 h

Cc1cccc2c3c(ccc12)-c1oc2c(c1C(=O)C3=O)CCN(CCCN1CCOCC1)C2 [listing 2 of 2 here]
Activity (Mus musculus [11]): Active | inhibition [12]: Active | inhibition [13]: Active | Activity (Peritoneal macrophage [14]): inactive | Activity (Peritoneal macrophage [15]): inactive | Activity (Peritoneal macrophage [16]): inactive | inhibition [17]: 100% | Activity (Peritoneal macrophage [18]): inactive | Activity (Peritoneal macrophage [19]): inactive | Activity (Mus musculus [20]): Active | inhibition [21]: 100% | inhibition [22]: Active | Activity (Mus musculus [23]): Active | inhibition (Peritoneal macrophage [24]): Active | Activity (Mus musculus [25]): Active | Activity (Peritoneal macrophage [26]): inactive | Activity (Mus musculus [27]): Active | inhibition [28]: Active
